The values below come from PubChem BioAssay (NCI).

The structures appear in SMILES notation. Where “and” joins values, the source holds several entries; their conditions need not be identical. Equal values may be shown once.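 Tested at 5 concentrations; 48 h exposure; 96-well plates; endpoints linearly interpolated, else capped at highest concentration. GI50 is the concentration that inhibits growth by half. TGI denotes the concentration required for complete inhibition of growth.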 Some results are limits rather than exact numbers.

What all share (test): inhibition of tumour cell growth, NCI panel, 48 h
Test [1] relates to EKVX NSCLC.
Test [2] has as its system SF-539 CNS.
In test [3] the test system is LOX IMVI melanoma.
The test system of test [4] is OVCAR-8 ovarian.
For test [5], the system named is SN12C renal.
Test [6] concerns MALME-3M melanoma.
The subject of test [7] is RPMI-8226 leukemia.
Test [8] concerns UACC-257 melanoma.
Test [9] has as its system HT29 colon.
Test [10] relates to HOP-92 NSCLC.

In the case of `C=CCc1c(O)c(C(=O)/C=C/c2ccccc2)c(OC)c2ccoc12`, the GI50 in test [1] was 6.13 µM; in test [2], 1.71 µM; in [3] it was 1.56 µM; in test [4], 3.13 µM; in test [5], 3.79 µM; in test [6], 5.8 µM. In addition, the GI50 was 1.88 µM in test [7], 2.56 µM in test [8], 3.01 µM in [9] and 1.33 µM in test [10]. The TGI was 20.6 µM in test [1]; 3.93 µM in [2]; 2.93 µM in [3]; 13.6 µM in test [4]; 14.1 µM in test [5]; 20.2 µM in test [6]. The TGI in [7] was determined as 6.76 µM; in [8] it was 7.75 µM; in [10], 4.82 µM.
In the case of `O=C1C2C3C=CC(C2C(=O)N1CN1CCSCC1)C1C2C(=O)N(CN4CCSCC4)C(=O)C2C31` (stereo not given), the TGI in [1] is > 100 µM; in test [2], > 100 µM; in [3], > 80.5 µM; in test [4], > 100 µM; in test [5], > 100 µM; in test [6] it was > 100 µM. In addition, the TGI in test [7] is 61.7 µM; in test [8], > 100 µM; in test [9] it was > 100 µM; in test [10] it was > 100 µM. Also, the GI50 in test [7] is 32.2 µM.
`O=c1cc(-c2ccccc2)[nH]c2cc(Cl)ccc12`: the TGI in test [1] was > 100 µM; in [2], 1.99 µM; in test [3], 21.7 µM; in test [4], 33.1 µM; in test [5], 82.3 µM; in test [6], > 100 µM. Moreover, the TGI in [7] is 10.5 µM; in test [8] it was 83.2 µM; in [9] it was > 100 µM; in test [10] it was 57.5 µM.
As to `Cc1nccc2c3ccc(OCc4cn(-c5ccc(Cl)cc5)nn4)cc3n(CC(C)C)c12`, the GI50 in test [1] was 2.14 µM; in [2], 2.82 µM; in test [3] it was 3.63 µM; in test [4], 2.73 µM; in test [5], 3.69 µM; in [6] it was 4.62 µM. Also, the GI50 was 1.09 µM in test [7], 4.62 µM in test [8], 1.25 µM in test [9] and 1.19 µM in test [10]. For the same compound, the TGI in test [1] is 32.6 µM; in test [2] it was 10.9 µM; in [3], > 33.3 µM; in test [4], 16.2 µM; in [5] it was > 33.3 µM; in test [6], 13 µM. Further, the TGI was found to be 3.95 µM in [7], 16.8 µM in test [8], 10.4 µM in test [9] and 13.6 µM in test [10].
Turning to `Cc1ccc2nc(NC(=O)/C(=N\NC(=S)NN)C3C(=O)NC(=S)NC3=O)sc2c1`, the TGI in test [1], in test [2], in [3], in [4], in test [5] and in test [6] was > 100 µM throughout. Besides, the TGI in test [7], in test [8], in [9] and in test [10] was > 100 µM throughout.
Consider `CCCN1CCC(c2ccc(Nc3nc(Nc4cc(F)ccc4C(N)=O)c4cc[nH]c4n3)c(OC)c2)CC1`, for which the GI50 is 0.725 µM in test [1]; 2.95 µM in [2]; 0.365 µM in test [3]; 2.23 µM in test [4]; 3.62 µM in test [5]; 3.13 µM in test [6]. Further, the GI50 was 3.68 µM in test [7], 0.572 µM in test [8], 0.0124 µM in [9] and 0.00586 µM in test [10]. Moreover, the TGI in test [1] stood at 8.18 µM; in test [2], 6.76 µM; in test [3], 5.84 µM; in test [4] it was 7.79 µM; in test [5] it was 8.55 µM; in [6], 7.54 µM. Besides, the TGI amounted to 12.1 µM in test [7], 5.2 µM in test [8], 1.06 µM in test [9] and 0.126 µM in test [10].
On to `C#Cc1cccc(NC(=O)c2ccc(NC(=O)CCl)cc2)c1`, for which the GI50 was > 82.5 µM in test [1]; 12.6 µM in [2]; 11.2 µM in [3]; 22.5 µM in test [4]; 18.6 µM in test [5]; 16.4 µM in [6]. For the same compound, the GI50 in [7] is 14.7 µM; in [8], > 82.5 µM; in [9], 16 µM; in test [10] it was 11.4 µM. Besides, the TGI is > 82.5 µM in [1]; 24.7 µM in test [2]; 23.5 µM in test [3]; > 82.5 µM in test [4]; > 82.5 µM in [5]; 53.3 µM in [6]. The TGI in [7] was 44.1 µM; in test [8] it was > 82.5 µM; in [9] it was 45.4 µM; in test [10], 26.4 µM.
On to `O=C(O[C@H]1CCN2C[C@H]3C[C@H](CN4C(=O)CCC[C@H]34)[C@@H]2C1)c1ccc(O)cc1`, for which the TGI in test [1], in test [2], in test [3], in [4], in [5] and in test [6] was > 100 µM in each case. Also, the TGI in [7], in test [8], in [9] and in test [10] was > 100 µM each time.
On to `CN1CCN(Cc2ccc(NC(=O)c3cncc(C#Cc4cnc(N)c5cnccc45)c3)cc2C(F)(F)F)CC1`, for which the GI50 was 0.485 µM in [1]; 0.157 µM in test [2]; 0.0745 µM in test [3]; 0.253 µM in test [4]; 0.167 µM in test [5]; 0.036 µM in test [6]. Further, the GI50 in [7] is 0.216 µM; in test [8], 0.161 µM; in test [9], 0.115 µM; in test [10], 0.0725 µM. Further, the TGI in [1] is 4.4 µM; in [2], 0.628 µM; in [3], 0.26 µM; in test [4], 8.09 µM; in test [5] it was 5.86 µM; in [6], 0.176 µM. The TGI in [7] is 3.25 µM; in [8] it was 1.45 µM; in [9] it was 6.1 µM; in test [10] it was 0.287 µM.
For the compound `O=[N+]([O-])c1ccc(Sc2ccncn2)c([N+](=O)[O-])c1`, the GI50 is 2.39 µM in test [1]; 2.32 µM in test [2]; 1.97 µM in test [3]; 3.47 µM in test [4]; 3.89 µM in test [5]; 1.32 µM in test [6]. Moreover, the GI50 in test [7] is 2.59 µM; in [8] it was 2.81 µM; in test [9] it was 1.64 µM; in test [10] it was 1.17 µM. In addition, the TGI in test [1] was determined as 8.3 µM; in test [2], 6.75 µM; in test [3], 5.21 µM; in test [4], 13.3 µM; in test [5], 15.1 µM; in [6] it was 3.23 µM. Also, the TGI in test [7] was determined as 8.16 µM; in test [8] it was 9.37 µM; in test [9] it was 3.81 µM; in test [10], 2.66 µM.
On to `Cc1cc(=O)oc2cc(OC/C=C3\CCC(=O)O3)ccc12`, for which the GI50 in test [1] was 21 µM; in [2], 13.1 µM; in test [3], 7.99 µM; in test [4] it was 23.5 µM; in test [5], 15.2 µM; in test [6] it was 13.6 µM. In addition, the GI50 in [7] was 3.2 µM; in [8] it was 21.5 µM; in test [9] it was 9.7 µM; in test [10], 12.1 µM. For the same compound, the TGI was 54.4 µM in test [1]; 46.1 µM in [2]; 22.9 µM in test [3]; > 74.5 µM in test [4]; 34.9 µM in test [5]; 33 µM in test [6]. Also, the TGI in [7] was 18.7 µM; in test [8] it was > 62.1 µM; in [9], 29.3 µM; in [10] it was 28.4 µM.
As to `COc1cccc2c1C(=O)c1c(O)c3c(c(O)c1C2=O)CC(O)(C(=O)CO)CC3OC1CC(N)C(O)C(C)O1` (stereo not given), the GI50 in test [1] is 75 µg/mL; in test [2], 38.3 µg/mL and 18.8 µg/mL; in test [3], 3.89 µg/mL and 19.5 µg/mL; in test [4] it was 19.5 µg/mL and 45.7 µg/mL; in test [5], 14.4 µg/mL and 13 µg/mL; in test [6], 10 µg/mL and 81.4 µg/mL. Moreover, the GI50 in test [7] is 7.24 µg/mL and 13.2 µg/mL; in test [8] it was 29.9 µg/mL and 25.1 µg/mL; in test [9], 15.7 µg/mL and 49.5 µg/mL; in [10], 23.9 µg/mL and 7.86 µg/mL. Also, the TGI in test [1] is 75 µg/mL; in test [2], 75 µg/mL and 94.8 µg/mL; in test [3], 75 µg/mL and > 150 µg/mL; in test [4] it was 75 µg/mL and > 150 µg/mL; in test [5], 75 µg/mL and > 150 µg/mL; in test [6] it was 75 µg/mL and > 150 µg/mL. For the same compound, the TGI is 75 µg/mL and 112 µg/mL in test [7]; 75 µg/mL and 113 µg/mL in [8]; 75 µg/mL and > 150 µg/mL in test [9]; 75 µg/mL and 127 µg/mL in test [10].
As to `C[C@@H](Oc1cc(-n2cnc3ccc(OC[C@@H](O)CO)cc32)sc1C(N)=O)c1ccccc1Cl`, the GI50 is 1.75 µM in test [1]; 0.133 µM in test [2]; 0.0931 µM in test [3]; 0.109 µM in [4]; 1.08 µM in test [5]; 7.14 µM in [6]. In addition, the GI50 in test [7] is 1.53 µM; in test [8] it was 0.291 µM; in test [9] it was 0.0798 µM; in test [10] it was 0.765 µM. Further, the TGI in test [1], in test [2], in [3], in test [4], in test [5] and in [6] was > 25 µM throughout. In addition, the TGI in [7] is > 25 µM; in test [8], > 25 µM; in test [9], > 25 µM; in test [10], > 16.4 µM.
`CC1(C)N=C(N)N=C(N)N1c1cccc(Br)c1`: the GI50 was 17.4 µM in test [1]; 0.393 µM in [2]; 0.146 µM in [3]; 0.228 µM in test [4]; 4.09 µM in test [5]; 33.2 µM in test [6]. Also, the GI50 in [7] is 6.81 µM; in test [8], > 92.4 µM; in [9], 0.255 µM; in test [10] it was > 100 µM. Moreover, the TGI in test [1], in [2], in test [3], in test [4], in test [5] and in [6] was > 100 µM throughout. Further, the TGI in test [7], in test [8], in test [9] and in [10] was > 100 µM in each case.
As for `O=C1NC(c2cccc(OCc3ccccc3)c2)Nc2ccccc21` (stereo not given), the TGI in [1] is > 54 µM; in test [2], 0.708 µM; in test [3] it was 17.5 µM; in test [4] it was 27.5 µM; in test [5] it was 30.5 µM; in test [6], 35 µM. Further, the TGI in test [7] is 1.07 µM; in test [8], 50.7 µM; in test [9] it was 0.239 µM; in [10], > 100 µM.
Regarding `Nc1ncnc2c1ccn2[C@@H]1O[C@H]([C@H](O)c2ccc(Cl)c(F)c2)[C@@H](O)[C@H]1O`, the GI50 in [1], in test [2], in test [3], in test [4], in test [5] and in [6] was > 100 µM each time. Besides, the GI50 was > 100 µM in test [7], > 100 µM in test [8], 36 µM in [9] and > 100 µM in test [10]. Moreover, the TGI in [1], in test [2], in test [3], in test [4], in [5] and in [6] was > 100 µM in each case. In addition, the TGI in test [7], in [8], in [9] and in test [10] was > 100 µM in each case.
